# pIC50: −log10 of the molar value.
# Biological target: T1, full-length human AR (Homo sapiens, UniProt P10275)
# T1 construct: expression vector encoding full-length human AR; expressed in transfected cells; host or cells: HEK293 (hAR/HEK293 cells)
# T1 sequence (P10275 1-920): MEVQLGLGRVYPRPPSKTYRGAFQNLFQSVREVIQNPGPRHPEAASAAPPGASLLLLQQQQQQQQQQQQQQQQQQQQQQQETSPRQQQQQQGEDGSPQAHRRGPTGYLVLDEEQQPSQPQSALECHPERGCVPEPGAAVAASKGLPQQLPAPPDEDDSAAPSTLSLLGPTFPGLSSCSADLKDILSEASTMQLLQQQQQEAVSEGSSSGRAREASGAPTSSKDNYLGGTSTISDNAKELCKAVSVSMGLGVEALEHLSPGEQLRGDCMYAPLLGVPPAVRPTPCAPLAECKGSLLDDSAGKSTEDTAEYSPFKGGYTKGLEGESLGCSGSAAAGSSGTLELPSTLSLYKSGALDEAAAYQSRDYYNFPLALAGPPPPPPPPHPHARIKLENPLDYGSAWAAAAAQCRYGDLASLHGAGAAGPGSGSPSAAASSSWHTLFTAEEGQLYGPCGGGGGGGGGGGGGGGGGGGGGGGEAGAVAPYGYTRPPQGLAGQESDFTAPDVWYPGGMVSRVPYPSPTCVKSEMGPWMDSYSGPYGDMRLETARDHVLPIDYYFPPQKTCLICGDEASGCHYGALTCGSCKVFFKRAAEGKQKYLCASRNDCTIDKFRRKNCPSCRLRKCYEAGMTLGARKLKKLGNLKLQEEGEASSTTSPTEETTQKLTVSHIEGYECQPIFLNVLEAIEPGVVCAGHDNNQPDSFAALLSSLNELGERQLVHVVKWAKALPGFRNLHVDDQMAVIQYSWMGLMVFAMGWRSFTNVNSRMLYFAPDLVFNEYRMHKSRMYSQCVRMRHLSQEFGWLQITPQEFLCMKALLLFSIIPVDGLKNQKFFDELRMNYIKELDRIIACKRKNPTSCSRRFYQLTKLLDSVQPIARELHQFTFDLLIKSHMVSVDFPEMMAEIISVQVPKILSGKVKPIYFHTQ
# Experiment: AR antagonism, reporter gene assay in hAR/HEK293 cells
# Type: cell-based
# Conditions: HEK293 cells stably transfected with full-length human AR and androgen responsive luciferase reporter; co-treated with submaximal testosterone (usually 0.45 nM); 1% DMSO; triplicates
# Protocol: Antagonism of test compounds for AR was measured by reporter gene assay in human embryonic kidney (HEK293) cells stably transfected with an expression vector encoding full-length human AR and androgen responsive luciferase reporter gene construct (hAR/HEK293 cells). To determine antagonism for hAR, the cells were treated simultaneously with increasing concentrations of the test compound and submaximal concentration of testosterone (usually 0.45 nM). The final DMSO concentration was 1%. All test compounds were studied in triplicates. The cells were incubated for […] before measurement of luciferase activity using Luciferase Assay System (Promega Corporation).
row,Structure (SMILES),pIC50
1,"CCN(c1ccc(C#N)c(C(F)(F)F)c1)C1CCCC(n2ccnc2)C1 (single isomer, unassigned) [Ex. 72 cis-enantiomer 2, 4-((3-(1H-imidazol-1-yl)cyclohexyl)(ethyl)amino)-2-(trifluoromethyl)benzonitrile]",7.57
2,"CCN(c1ccc(C#N)c(C(F)(F)F)c1)C1CCCC(O)(c2cccnc2)C1 (single isomer, unassigned) [Ex. 216 diastereomer 2, 4-(Ethyl(3-hydroxy-3-(pyridin-3-yl)cyclohexyl)amino)-2-(trifluoromethyl)-benzonitrile]",7.55
3,"CN(c1ccc(C#N)c(C(F)(F)F)c1)C1C=C(c2cncs2)CCC1 (single isomer, unassigned) [Ex. 232 enantiomer 1, 4-(Methyl(3-(thiazol-5-yl)cyclohex-2-en-1-yl)amino)-2-(trifluoromethyl)-benzonitrile]",7.48
4,"CCN(c1ccc(C#N)c(C(F)(F)F)c1)C1CC=C(c2cnco2)C1 (single isomer, unassigned) [Ex. 233 enantiomer 2, 4-(Ethyl(3-(oxazol-5-yl)cyclopent-3-enyl)amino)-2-(trifluoromethyl)benzonitrile]",7.54
5,"CCN(c1ccc(C#N)c(Cl)c1)C1CCCC(c2cccnc2)C1 (single isomer, unassigned; diastereomer 2) [Ex. 76 cis-diastereomer, 2-Chloro-4-(ethyl(3-(pyridin-3-yl)cyclohexyl)amino)benzonitrile]",9.00
6,"CCN(c1ccc(C#N)c(Cl)c1)C1CCCC(c2cncc(OC)c2)C1 (single isomer, unassigned; diastereomer 2) [Ex. 83 cis-diastereomer, 2-Chloro-4-(ethyl(3-(5-methoxypyridin-3-yl)cyclohexyl)amino)benzonitrile]",7.80
7,"CCN(c1ccc(C#N)c(C(F)(F)F)c1)C1CCCC(c2nnco2)C1 (single isomer, unassigned; diastereomer 4) [Ex. 19 cis-diastereomer, 4-((3-(1,3,4-Oxadiazol-2-yl)cyclohexyl)(ethyl)amino)-2-(trifluoromethyl)benzonitrile]",7.19
8,"CCN(c1ccc(C#N)c(C(F)(F)F)c1)C1CCCC(n2cccn2)C1 (single isomer, unassigned; diastereomer 4) [Ex. 48 cis-diastereomer, 4-((-3-(1H-Pyrazol-1-yl)cyclohexyl)(ethyl)amino)-2-(trifluoromethyl)benzonitrile]",7.62
9,"CCN(c1ccc(C#N)c(C(F)(F)F)c1)C1CCCC(c2nnn(C)n2)C1 (single isomer, unassigned; isomer 4) [Ex. 11 cis of 2,5-isomer, 4-(Ethyl(3-(2-methyl-2H-tetrazol-5-yl)cyclohexyl)amino)-2-(trifluoromethyl)benzonitrile]",7.59
10,"CCN(c1ccc(C#N)c(C(F)(F)F)c1)C1CCC=C(c2ccncc2)C1 (centres unmarked) [Ex. 77, 4-(Ethyl(3-(pyridin-4-yl)cyclohex-3-en-1-yl)amino)-2-(trifluoromethyl)benzonitrile]",7.40
11,"CCN(c1cc(F)c(C#N)c(Cl)c1)C1CCC=C(c2cccnc2)C1 (centres unmarked) [Ex. 132, 2-Chloro-4-(ethyl(3-(pyridin-3-yl)cyclohex-3-en-1-yl)amino)-6-fluorobenzonitrile]",8.15
12,"CCN(c1ccc(C#N)c(C(F)(F)F)c1)C1C=C(n2cncn2)CCC1 (centres unmarked) [Ex. 210, 4-((3-(1H-1,2,4-triazol-1-yl)cyclohex-2-en-1-yl)(ethyl)amino)-2-(trifluoromethyl)benzonitrile]",7.64
13,"CCN(c1ccc(C#N)c(C(F)(F)F)c1)C1CCCC(n2ccnn2)C1 (stereo not drawn) [Ex. 223, 4-((3-(1H-1,2,3-triazol-1-yl)cyclohexyl)(ethyl)amino)-2-(trifluoromethyl)-benzonitrile (cis-diastereomer)]",7.10
14,"CN(c1ccc(C#N)c(C(F)(F)F)c1)[C@@H]1C=C(n2ccnc2)[C@@H](O)CC1(C)C [Ex. 262, 4-(((1R,4S)-4-hydroxy-3-(1H-imidazol-1-yl)-6,6-dimethylcyclohex-2-en-1-yl)(methyl)-amino)-2-(trifluoromethyl)benzonitrile]",7.05
